Measured values reported in US10703764B2, “Benzopiperazine compositions as BET bromodomain inhibitors” (FORMA Therapeutics, Inc., priority 2013, dated 2020).

Columns and labels:
[1] = target: T1, BRD4 BD1 (Homo sapiens, UniProt O60885); assay: AlphaScreen binding assay, BRD4 Bromodomain 1
T1 construct: made in house
How it was run: (§1)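 An AlphaScreen competition format was used with His-BRD4 BD1 or BD2 and biotin-H4 K5/8/12/16-acetyl peptide, each at matched final levels of 50 nM (BD1) or 100 nM (BD2). Incubation in HEPES/NaCl buffer with 0.1% BSA and 0.01% Triton X-100 ran ≥1 h before IC50 determination.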

[2] = target: T2, BRD4 BD2 (Homo sapiens, UniProt O60885); assay: AlphaScreen binding assay, BRD4 Bromodomain 2
T2 construct: made in house
How it was run: as §1

[3] = test system: MV4-11 cells; assay: Oncology cell growth assay (3-day proliferation, CellTiter-Glo); type: cell-based; conditions: Homo sapiens, MV4-11, 72 h, AML cell line MV4-11, 72 hours, compounds grouped by IC50 range, read-out: MV4-11 IC50 (inhibition of proliferation, gIC50)
Protocol: The impact of Example compounds on cancer cell proliferation was determined using the acute myelocytic leukemia (AML) cell line MV4-11 (ATCC) in a 3-day proliferation assay. MV4-11 cells were maintained in RPMI 1640 media supplemented with 10% FBS at 37° C. and an atmosphere of 5% CO2. For compound testing, compound dilutions series were prepared in DMSO via a 3-fold serial dilution from 2 mM to 0.001 mM in 384-well white flat bottom plates. The final compound concentrations in the wells were 10, 3.3, 1.1, 0.37, 0.12, 0.041, 0.013 and 0.0045 μM. MV4-11 cells were plated at a density of 3000 cells/well in final volume of 50 μl culture media and incubated for 72 hours. […] Luminescent signal from the CellTiter-Glo assay was read on an EnVision multilabel plate reader (PerkinElmer). Values for the concentration that inhibited cell growth by 50% (gIC50) between the DMSO control and background control (no cells) were determined using IDBS Activity Base software with a four parameter logistic curve fit by the equation y=A+((B−A)/(1+((C/x)^D))), wherein A denotes the bottom plateau of the curve, B denotes the top plateau of the curve, C denotes the x value at the middle of the curve, D denotes the slope factor, x denotes the original known x values, and y denotes the original known y values. Data was fitted using the Levenburg Marquardt algorithm.

IC50 [1] [nM]	IC50 [2] [nM]	IC50 [3] [nM]	Compound
100 to 1000	50 to 500	100 to 500	CC(=O)N1c2ccc(-c3cnn(C4CCOCC4)c3)cc2N(C(=O)OC2CCC(F)(F)CC2)C[C@@H]1C [Example I-2, (S)-4,4-difluorocyclohexyl 4-acetyl-3-methyl-7-(1-(tetrahydro-2H-pyran-4-yl)-1H-pyrazol-4-yl)-3,4-dihydroquinoxaline-1(2H)-carboxylate]
100 to 1000	50 to 500	< 100	COc1ccccc1OC(=O)N1C[C@H](C)N(C(C)=O)c2ccc(-c3cnn(C4COC4)c3)cc21 [Example I-3, (S)-2-methoxyphenyl 4-acetyl-3-methyl-7-(1-(oxetan-3-yl)-1H-pyrazol-4-yl)-3,4-dihydroquinoxaline-1(2H)-carboxylate]
100 to 1000	50 to 500	100 to 500	CC(=O)N1c2ccc(-c3cnn(C4CCOCC4)c3)cc2N(C(=O)OC2CC(F)(F)C2)C[C@@H]1C [Example I-4, (S)-3,3-difluorocyclobutyl 4-acetyl-3-methyl-7-(1-(tetrahydro-2H-pyran-4-yl)-1H-pyrazol-4-yl)-3,4-dihydroquinoxaline-1(2H)-carboxylate]
100 to 1000	50 to 500	100 to 500	CC(=O)N1c2ccc(-c3ccc(S(C)(=O)=O)cc3)cc2N(C(=O)OC2CC(F)(F)C2)C[C@@H]1C [Example I-5, (S)-3,3-difluorocyclobutyl 4-acetyl-3-methyl-7-(4-(methylsulfonyl)phenyl)-3,4-dihydroquinoxaline-1(2H)-carboxylate]
100 to 1000	< 50	100 to 500	CC(=O)N1c2ccc(-c3cnn(C4CC4)c3)cc2N(C(=O)C2CC2)C[C@@H]1C [Example I-8, (S)-1-(4-(cyclopropanecarbonyl)-6-(1-cyclopropyl-1H-pyrazol-4-yl)-2-methyl-3,4-dihydroquinoxalin-1(2H)-yl)ethanone]
100 to 1000	–	> 500	CC(=O)N1c2ccc(-c3cnn([C@H]4CCCS(=O)(=O)C4)c3)cc2N(C(=O)OCC2CC2)C[C@@H]1C [Example I-172, cyclopropylmethyl (3S)-4-acetyl-7-{1-[(3S)-1,1-dioxo-1λ^6-thian-3-yl]-1H-pyrazol-4-yl}-3-methyl-1,2,3,4-tetrahydroquinoxaline-1-carboxylate]
100 to 1000	–	< 100	CC(=O)N1c2ccc(-c3cnn([C@@H]4CCCS(=O)(=O)C4)c3)cc2N(C(=O)OC2CCC2)C[C@@H]1C [Example I-173, cyclobutyl (3S)-4-acetyl-7-{1-[(3R)-1,1-dioxo-1λ^6-thian-3-yl]-1H-pyrazol-4-yl}-3-methyl-1,2,3,4-tetrahydroquinoxaline-1-carboxylate]
< 100	–	< 100	CC(=O)N1c2ccc(-c3cnn([C@H]4CCCS(=O)(=O)C4)c3)cc2N(C(=O)OC2CCC2)C[C@@H]1C [Example I-174, cyclobutyl (3S)-4-acetyl-7-{1-[(3S)-1,1-dioxo-1λ^6-thian-3-yl]-1H-pyrazol-4-yl}-3-methyl-1,2,3,4-tetrahydroquinoxaline-1-carboxylate]
< 100	–	< 100	CC(=O)N1c2ccc(-c3cnn(C4CCNC(=O)C4)c3)cc2N(C(=O)OC2CCC2)C[C@@H]1C (stereo partly drawn) [Example I-175, cyclobutyl (3S)-4-acetyl-3-methyl-7-[1-(2-oxopiperidin-4-yl)-1H-pyrazol-4-yl]-1,2,3,4-tetrahydroquinoxaline-1-carboxylate]
100 to 1000	–	100 to 500	CC(=O)N1c2ccc(-c3cnn(C4CN[C@H]4C)c3)cc2N(C(=O)OC2CCC2)C[C@@H]1C (stereo partly drawn) [Example I-178, cyclobutyl (3S)-4-acetyl-3-methyl-7-{1-[(2S)-2-methylazetidin-3-yl]-1H-pyrazol-4-yl}-1,2,3,4-tetrahydroquinoxaline-1-carboxylate]
100 to 1000	–	100 to 500	CC(=O)N1c2ccc(-c3ccc(C(=O)NCCN)cc3)cc2N(C(=O)OC(C)C)C[C@@H]1C [Example I-480]
100 to 1000	–	100 to 500	CC(C)OC(=O)N1C[C@H](C)N(C(=O)C2CC2)c2ccc(-c3ccc(C(=O)N(C)CC(=O)N(C)C)cc3)cc21 [Example I-560]
